Test results from patent US20110165092A1, “COSMETIC AND/OR DERMATOLOGICAL COMPOSITION” (Universite de la Mediterranee, Aix-Marseille II, priority 2008, published 2011).

Assays:
healthy cells = test: Immunohistochemistry dose- and time-response on healthy control cells; type: cell-based, human; settings: 100 μM pravastatin for 12 hours, 20 μM zoledronate for 6 hours, FIG. 3; for rate of prelamin A produced in treated healthy cells: in combination or singly
Protocol: Labtech style culture wells (Nunc, Ref. 177399) are seeded, at the rate of 5×10^4 cells per well.
The complete culture medium is supplemented with the treatment or treatments (statin, NBP, both), and the cells are cultivated for the ad hoc time.
The cells are fixed in a 4% paraformaldehyde solution (in PBS) for 10 minutes at ambient temperature.
The primary antibody is diluted to 1/100th in 50 μl of incubating solution and placed in contact with the cells for 1 hour at ambient temperature in a moisture chamber.
The primary antibodies used are of 2 types: • Anti-lamin A/C mouse (N-terminal side), clone 4A7, donation from G. Morris (Oswestry, UK) • Anti-prelamin A goat (15 aa C-terminal end), product SC6214, Santa Cruz Biotechnology, Inc. • 3 rinsings of 15 min each are carried out in 50 μl of 1× PBS.
The cells are immersed in a drop of VectaShield (Vector), covered with a cover glass and observed under a fluorescence microscope (Leica DMR, Leica Microsystems), equipped with a coolSNAP camera system (Princeton).
Dose-response and time-response curves made it possible to determine maximum effectiveness by measuring 2 parameters on healthy control cells, on the one hand, and then on HGPS patient cells.

progeria patient cells = test: Immunocytochemistry, nuclear morphology of progeria patient cells; type: cell-based, human; settings: abnormal nuclei 48 hours after start, FIG. 10d
Source text: The dermal fibroblasts of a control subject (GM00038) and of patients afflicted with progeria and carriers of the G608G mutation (AG11498 and AG01972) were obtained from the Coriell Cell Repository. The HeLa cells came from the American Type Culture Collection. The cells were cultivated in DMEM (Gibco) supplemented with 10% FBS (Gibco) and 1% antibiotic-antimycotic (Gibco). The fibroblasts came from 12-day old mice tails (Varela et al., 2005). The concentration and the length of the treatment with the statin and the aminobiphosphonate are indicated in the legend to the figures. […] The percentage of abnormal nuclei was measured 48 hours after the start of the treatment. […]
The dilution of primary antibodies was 1:100 for the polyclonal goat anti-prelamin A antibody Sc-6214, Santa Cruz Biotechnologies), 1:40 for the anti-lamin A/C antibody (4A7 supplied by G. Morris), 1:200 for the anti-calreticulin rabbit antibody (Stressgen) and 1:100 for the anti-lamin B1 antibody (Abcam). […] Digital images were recorded with a Leica DMR microscope equipped with a CoolSnap camera or with a Leica TCS SP5 confocal microscope. […] More than 100 nuclei were analysed in control fibroblasts for each of the treatments. The number of cell nuclei of patients afflicted with progeria which was analysed was 250 (passage 8), 198 (passage 13) and 150 (passage 20). […]

control fibroblasts = test: Nuclear morphology of control mice cells in culture; type: cell-based, mouse; settings: FIG. 12b
Source text: (§1) The dermal fibroblasts of a control subject (GM00038) and of patients afflicted with progeria and carriers of the G608G mutation (AG11498 and AG01972) were obtained from the Coriell Cell Repository. The HeLa cells came from the American Type Culture Collection. The cells were cultivated in DMEM (Gibco) supplemented with 10% FBS (Gibco) and 1% antibiotic-antimycotic (Gibco). The fibroblasts came from 12-day old mice tails (Varela et al., 2005). The concentration and the length of the treatment with the statin and the aminobiphosphonate are indicated in the legend to the figures. During the combined treatment with statin+aminobiphosphonate in the presence of farnesol and/or geranylgeraniol, […] were added to the culture medium with increasing concentrations of farnesol and/or geranylgeraniol. The percentage of abnormal nuclei was measured 48 hours after the start of the treatment.
(§2) Quantification of the effect of pravastatin (1 μM) and zoledronate (1 μM) combined or uncombined on the nuclear morphology of Zmpste24^−/− mice (a) and control mice (b) cells in culture, in the presence of farnesol, geranylgeraniol or both molecules.

Zmpste24−/− cells = test: Nuclear morphology of Zmpste24−/− mice cells in culture; type: cell-based, mouse; settings: pravastatin 1 μM and zoledronate 1 μM, alone or in combination, FIG. 12a
Source text: as §1, §2

Zmpste24−/− mice = test: Progeroid phenotype of Zmpste24−/− mice (Example 9); type: in vivo, mouse; settings: daily treatment, FIG. 15
Protocol: Pravastatin (100 mg/kg/day) and zoledronate (100 mg/kg/day) diluted in PBS were administered to the mice every day.
The difference between the various groups of treated or untreated mice and cells was analysed using the t-test. The calculations were made with the Microsoft Excel program. The data was expressed as a mean±standard error of the mean (SEM).

| SMILES | rate of deformed nuclei (a sign of toxicity in healthy cells) (healthy cells) | rate of prelamin A produced in treated healthy cells (healthy cells) [%] | influence on the effect of the pravastatin+zoledronate treatment on nuclear morphology (progeria patient cells) | effect on nuclear morphology of control fibroblasts (control fibroblasts) | influence on the effect of the pravastatin+zoledronate treatment on nuclear morphology (Zmpste24−/− cells) | lifespan of the Zmpste24−/− mice, each drug separately (Zmpste24−/− mice) |
| --- | --- | --- | --- | --- | --- | --- |
| CC[C@H](C)C(=O)O[C@H]1C[C@H](O)C=C2C=C[C@H](C)[C@H](CC[C@@H](O)C[C@@H](O)CC(=O)O)[C@H]21 [pravastatin] | approximately 12% | 25 |  |  |  |  |
| CC(C)=CCCC(C)=CCCC(C)=CCO [farnesol] |  |  | abolishes the effect of the pravastatin+zoledronate treatment | Neither farnesol nor geranylgeraniol produces any effect on control fibroblasts | abolish the effect of the pravastatin+zoledronate treatment on the nuclear morphology |  |
| CC(C)=CCC/C(C)=C/CC/C(C)=C/CC/C(C)=C/CO [geranylgeraniol] |  |  | also blocks the effect of the treatment | Neither farnesol nor geranylgeraniol produces any effect on control fibroblasts | abolish the effect of the pravastatin+zoledronate treatment on the nuclear morphology |  |
| O=P(O)(O)C(O)(Cn1ccnc1)P(=O)(O)O [zoledronate, (1-hydroxy-2-imidazol-1-yl-1-phosphono-ethyl)phosphonic acid] |  | 15 |  |  |  | does not improve the lifespan |
